Consider three compounds from patent US12371426B2, “Pyridazine derivatives as SMARCA2/4 degraders” (Aurigene Discovery Technologies Limited, priority 2018, dated 2025).

Structures are written as SMILES. pIC50: −log10 of the molar value.

One assay deals with NCI-H929 cells. The assay can be described thus: Anti proliferative activity in NCI-H929 cell line by Cell Titer Glo assay. Format: cell-based. Particulars: Homo sapiens, 72 h, 3 days compound incubation, CellTiter Glo, read-out: Anti-proliferative activity IC50 group (NCI-H929 cells). A digest of the protocol: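 Cells seeded in complete RPMI-1640 and exposed next day to compounds in triplicate (DMSO ≤0.3% final) for 3 days (H929) or 8 days (H838). Viability by CellTiter-Glo ATP luminescence; % inhibition relative to DMSO control, IC50 from dose-response fit.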

In the next assay the test system is NCI-H838 cells. The assay can be described thus: Anti proliferative activity in NCI-H838 cell line by Cell Titer Glo assay. Format: cell-based. Particulars: Homo sapiens, 192 h, 8 days compound incubation, CellTiter Glo, read-out: Anti-proliferative activity IC50 group (NCI-H838 cells). The method, then:
Determination of Anti Proliferative Activity of Compounds in NCI-H929 and NCI-H838 Cell Lines by Cell Titer Glo® (promega) assay:
NCI-H929 (ATCC CRL-9068) or NCI-H838 (ATCC CRL-5844) cells were seeded in 96 well plate flat black clear bottom plates (Corning, Cat. No 3904) using complete RPMI-1640 media. Next day, compounds listed in the present invention were added to cells from 10 mM stocks made in DMSO (Sigma Cat no. D2650). Each concentration of compound was tested in triplicate with DMSO concentration at a final percentage not exceeding 0.3 in the cells. After the compound incubation (3 days for H929 and 8 days for H838) assay was terminated using 50 μl of CellTiter Glo® reagent (Promega, Cat. no G7572). CellTiter Glo® Luminescent reagent determines the number of viable cells based on quantitation of ATP present which is an indicator of cell number and metabolic activity. Luminescence readings were taken in Victor-3 instrument. Percent inhibition of proliferation was calculated using formula, % inhibition=100−(luminescence value of test/luminescence value of DMSO control)*100. DMSO control (0%)=Cells in complete media with DMSO; blank=Media alone containing DMSO. IC50 was calculated using graph pad prism software.
Herein group “A” refers to IC50 value lower than 1 μM, “B” refers to IC50 value between 1-10 μM (both inclusive) and “C” refers to IC50 value higher than 10 μM or less than 50% activity at 10 μM.

The next assay deals with T1, SMARCA4 (Homo sapiens, UniProt P51532).
T1 construct: endogenous in cells; host or cells: NCI-H929 (ATCC CRL-9068)
T1 sequence (P51532 whole entry): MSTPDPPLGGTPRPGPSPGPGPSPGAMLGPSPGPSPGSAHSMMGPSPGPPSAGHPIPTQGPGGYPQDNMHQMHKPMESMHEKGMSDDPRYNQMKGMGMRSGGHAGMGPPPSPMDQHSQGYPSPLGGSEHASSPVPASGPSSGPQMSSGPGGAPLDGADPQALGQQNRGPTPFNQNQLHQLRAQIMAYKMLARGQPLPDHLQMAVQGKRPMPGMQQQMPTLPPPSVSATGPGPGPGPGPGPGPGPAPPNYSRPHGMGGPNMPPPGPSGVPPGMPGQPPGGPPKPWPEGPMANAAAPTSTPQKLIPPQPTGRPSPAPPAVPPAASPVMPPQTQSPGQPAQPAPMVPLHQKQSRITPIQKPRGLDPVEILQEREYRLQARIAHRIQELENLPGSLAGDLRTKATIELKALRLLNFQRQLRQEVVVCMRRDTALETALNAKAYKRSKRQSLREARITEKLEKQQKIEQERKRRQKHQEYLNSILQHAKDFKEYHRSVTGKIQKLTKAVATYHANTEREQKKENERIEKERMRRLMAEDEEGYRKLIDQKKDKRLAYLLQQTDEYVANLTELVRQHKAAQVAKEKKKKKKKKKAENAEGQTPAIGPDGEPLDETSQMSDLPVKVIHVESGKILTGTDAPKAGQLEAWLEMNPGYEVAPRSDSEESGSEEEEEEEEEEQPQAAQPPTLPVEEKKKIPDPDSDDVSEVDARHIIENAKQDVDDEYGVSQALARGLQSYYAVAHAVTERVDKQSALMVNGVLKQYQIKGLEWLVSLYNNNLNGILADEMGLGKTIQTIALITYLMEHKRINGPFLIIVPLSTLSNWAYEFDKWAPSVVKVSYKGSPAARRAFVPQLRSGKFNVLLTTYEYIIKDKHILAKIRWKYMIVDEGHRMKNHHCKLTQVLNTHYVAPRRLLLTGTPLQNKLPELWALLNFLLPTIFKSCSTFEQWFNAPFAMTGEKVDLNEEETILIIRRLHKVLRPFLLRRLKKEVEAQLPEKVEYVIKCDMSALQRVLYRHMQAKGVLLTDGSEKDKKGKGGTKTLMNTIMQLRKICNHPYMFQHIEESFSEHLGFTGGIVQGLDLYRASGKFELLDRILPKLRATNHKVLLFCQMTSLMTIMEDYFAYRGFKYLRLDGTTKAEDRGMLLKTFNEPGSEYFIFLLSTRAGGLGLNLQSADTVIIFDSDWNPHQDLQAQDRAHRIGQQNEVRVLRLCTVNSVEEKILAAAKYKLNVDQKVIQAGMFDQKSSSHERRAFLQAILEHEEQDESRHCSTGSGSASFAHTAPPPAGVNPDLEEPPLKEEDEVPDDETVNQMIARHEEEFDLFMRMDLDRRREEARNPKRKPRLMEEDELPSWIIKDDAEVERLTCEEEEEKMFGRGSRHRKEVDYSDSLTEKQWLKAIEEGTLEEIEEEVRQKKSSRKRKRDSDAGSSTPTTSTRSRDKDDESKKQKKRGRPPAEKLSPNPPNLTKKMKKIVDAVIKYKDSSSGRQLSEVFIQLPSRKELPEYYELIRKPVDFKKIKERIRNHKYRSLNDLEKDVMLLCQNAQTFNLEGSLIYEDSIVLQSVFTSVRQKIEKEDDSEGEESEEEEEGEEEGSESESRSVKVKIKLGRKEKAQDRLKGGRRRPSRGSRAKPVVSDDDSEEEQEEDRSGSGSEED
The assay can be described thus: SMARCA4 degradation in H929 cells by Western blot. Format: cell-based. The settings on record: NCI-H929, 100 nM, 16 hours. The protocol:
(§1) Determination of SMARCA2 and SMARCA4 Degradation in H929 Cells by Western Blot:
(§2) NCI-H929 (ATCC CRL-9068) was plated in 6 well plates using complete RPMI-1640 media. Next day, compounds of present invention were added to cells from 10 mM stocks made in DMSO (Sigma Cat no. D2650). Each concentration of compound was tested with DMSO not exceeding final percentage of 0.3 in the cells. Cells were incubated with the compound for 16 hours followed by harvesting with 1× RIPA lysis buffer (Thermo Fischer, catalogue number #89900) containing protease inhibitor cocktail (Sigma catalogue number #P-8340). Equal amount of protein was loaded on SDS PAGE gel for electrophoresis. Western blot was carried out for detection of either SMARCA2 (Cell signaling technologies, catalogue number #11966) or SMARCA4 antibody (Cell signaling technologies, catalogue number #49360). Beta Actin (Santa Cruz, catalogue number #69879) was used as loading control. Percentage of SMARCA2 or SMARCA4 degradation was calculated using formula % Degradation=100−(normalized band intensity in treated sample/normalized band intensity in DMSO sample)*100.
(§3) Selected compounds of the present invention were screened in the above mentioned assay procedures for determination of % SMARCA2 and SMARCA4 degradation 100 nM and the results are summarized in below table 30.
(In western blotting, separated proteins are transferred to a membrane and probed.)

Assay [1] deals with T2, SMARCA2 (Homo sapiens, UniProt P51531). The assay can be described thus: SMARCA2 degradation in H929 cells by Western blot. The format is cell-based. Also on record: endogenous in cells. The settings on record: 16 hours. The protocol: as §1, §2, §3
T2 sequence (P51531 whole entry): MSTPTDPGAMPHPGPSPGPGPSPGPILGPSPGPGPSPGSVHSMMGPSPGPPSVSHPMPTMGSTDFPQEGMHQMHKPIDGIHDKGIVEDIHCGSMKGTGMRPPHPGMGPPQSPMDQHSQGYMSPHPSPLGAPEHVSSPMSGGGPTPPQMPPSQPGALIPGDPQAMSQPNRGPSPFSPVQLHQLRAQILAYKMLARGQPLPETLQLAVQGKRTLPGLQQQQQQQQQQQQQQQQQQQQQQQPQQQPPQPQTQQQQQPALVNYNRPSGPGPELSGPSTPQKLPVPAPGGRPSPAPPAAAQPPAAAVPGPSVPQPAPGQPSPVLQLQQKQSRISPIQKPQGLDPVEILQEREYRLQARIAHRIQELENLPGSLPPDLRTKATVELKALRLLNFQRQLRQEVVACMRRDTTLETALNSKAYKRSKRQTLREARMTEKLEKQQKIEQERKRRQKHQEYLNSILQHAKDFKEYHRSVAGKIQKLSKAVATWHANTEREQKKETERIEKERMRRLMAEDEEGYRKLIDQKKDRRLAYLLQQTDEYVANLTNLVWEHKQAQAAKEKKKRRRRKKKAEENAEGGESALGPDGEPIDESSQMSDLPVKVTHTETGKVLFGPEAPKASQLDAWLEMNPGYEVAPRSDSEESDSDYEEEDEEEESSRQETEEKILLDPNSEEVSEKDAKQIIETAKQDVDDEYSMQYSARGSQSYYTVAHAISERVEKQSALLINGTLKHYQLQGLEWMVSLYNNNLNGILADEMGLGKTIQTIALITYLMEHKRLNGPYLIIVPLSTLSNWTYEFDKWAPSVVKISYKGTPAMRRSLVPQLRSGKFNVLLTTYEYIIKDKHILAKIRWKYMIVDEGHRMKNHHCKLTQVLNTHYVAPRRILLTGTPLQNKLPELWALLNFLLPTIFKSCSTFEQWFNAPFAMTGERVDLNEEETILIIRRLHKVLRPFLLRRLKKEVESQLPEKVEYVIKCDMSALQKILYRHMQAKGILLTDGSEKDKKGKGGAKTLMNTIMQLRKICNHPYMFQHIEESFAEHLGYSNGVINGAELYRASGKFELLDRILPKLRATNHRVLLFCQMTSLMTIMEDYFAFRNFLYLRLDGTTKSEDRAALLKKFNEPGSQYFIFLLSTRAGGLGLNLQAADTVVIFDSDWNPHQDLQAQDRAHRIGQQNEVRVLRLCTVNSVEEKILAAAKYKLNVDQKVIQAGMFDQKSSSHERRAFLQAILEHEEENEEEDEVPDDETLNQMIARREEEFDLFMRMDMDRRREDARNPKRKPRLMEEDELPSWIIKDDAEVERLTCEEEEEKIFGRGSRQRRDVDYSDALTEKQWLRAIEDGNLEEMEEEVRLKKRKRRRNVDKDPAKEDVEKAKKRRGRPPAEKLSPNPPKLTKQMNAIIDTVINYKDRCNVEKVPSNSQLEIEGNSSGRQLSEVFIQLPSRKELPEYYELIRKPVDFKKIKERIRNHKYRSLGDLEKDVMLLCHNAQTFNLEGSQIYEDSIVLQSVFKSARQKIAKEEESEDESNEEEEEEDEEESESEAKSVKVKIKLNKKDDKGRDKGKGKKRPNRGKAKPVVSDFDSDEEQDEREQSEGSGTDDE
The target in assay [2] is T2, SMARCA2. As to the kind of experiment: SMARCA2 degradation in NCI-H838 cells by Western blot. Format: cell-based. On the set-up: endogenous in cells; host or cells: NCI-H838 (ATCC CRL-5844). Particulars: 16 hours.
The subject of assay [3] is SMARCA4-deficient cancer cell lines. Particulars: SMARCA2/4 bromodomain inhibitor; Cancer Res. 2015; cited from earlier work.

For orientation: pIC50 means −log10 of the IC50, conventionally taken in molar units.

For `Cc1ncsc1-c1ccc([C@H](C)NC(=O)[C@@H]2C[C@@H](O)CN2C(=O)[C@@H](NC(=O)CC2CCN(c3cc(-c4cc(F)ccc4O)nnc3N)CC2)C(C)(C)C)cc1` [Compound 99], the pIC50 in the assay with NCI-H929 cells and in the assay with NCI-H838 cells was over 6.00 throughout. This compound had an SMARCA4 percent degradation at 0.1 µM on SMARCA4 of 100%. For the same compound, the “SMARCA2 Percent degradation @ 100 nM” value on SMARCA2 [1] stood at 99%. Moreover, on SMARCA2 [2], the “SMARCA2 @ 100 nM (% SMARCA2 degradation)” value is recorded as 75%.

With `O=C(/C=C/N1C[C@H]2C[C@@H]1CN2c1ccccn1)c1ccccc1O` [PFI-3], the antiproliferative phenotype result in assay [3] is reported as “fails to display an antiproliferative phenotype”.

For the compound `Cc1ncsc1-c1ccc([C@H](C)NC(=O)[C@@H]2C[C@@H](O)CN2C(=O)[C@@H](NC(=O)CN2CCN(c3cc(-c4cccc(F)c4O)nnc3N)CC2)C(C)(C)C)cc1` [Compound 90], the negative-log IC50 (pIC50) in the assay with NCI-H929 cells and with NCI-H838 cells was over 6.00 each time. Moreover, the SMARCA4 percent degradation at 0.1 µM at SMARCA4 worked out at 101%. Also, the “SMARCA2 Percent degradation @ 100 nM” value on SMARCA2 [1] came out at 100%. For the same compound, the “SMARCA2 @ 100 nM (% SMARCA2 degradation)” value on SMARCA2 [2] is reported as 85%.
